Test results published in PMC8713164, “Development of a 1,2,4-Triazole-Based Lead Tankyrase Inhibitor: Part II” (Journal of Medicinal Chemistry, 2021).
≈ marks a conversion by molar mass, not a printed value. Read-outs that look alike come from different tables or passages of the source.

Assays:
[1] = tested on: WNT/β-catenin signaling; conditions: cited from earlier work
[2] = tested on: COLO 320DM cells; conditions: cited from earlier work
[3] = parameters: method as in PMID 32511917; conditions: PBS pH = 7; cited from earlier work
[4] = tested on: Caco-2; conditions: cited from earlier work
[5] = parameters: method as in PMID 32511917; conditions: cited from earlier work
[6] = parameters: method as in PMID 32511917; conditions: cited from earlier work; remark: listed apart in the source
[7] = parameters: method as in PMID 32511917; conditions: cited from earlier work; remark: listed apart in the source
[8] = tested on: Cerep Safety panel 44 targets; parameters: method as in PMID 32511917; conditions: 10 μM; cited from earlier work
[9] = tested on: A2A; conditions: 10 μM; cited from earlier work
[10] = mouse PO 5 mg/kg; cited from earlier work
[11] = target: T1, TNKS2 (Homo sapiens, UniProt Q9H2K2); test: TNKS2 biochemical assay (unreacted NAD+ fluorescence); conditions: TNKS2 5 nM, 500 nM NAD+, 20 h; quadruplicates; 95% confidence intervals in parentheses; 24: averages of multiple independent measurements; read-out: IC50 TNKS2
T1 construct: TNKS2 (residues 873–1162); made in house
T1 sequence (Q9H2K2 873-1162): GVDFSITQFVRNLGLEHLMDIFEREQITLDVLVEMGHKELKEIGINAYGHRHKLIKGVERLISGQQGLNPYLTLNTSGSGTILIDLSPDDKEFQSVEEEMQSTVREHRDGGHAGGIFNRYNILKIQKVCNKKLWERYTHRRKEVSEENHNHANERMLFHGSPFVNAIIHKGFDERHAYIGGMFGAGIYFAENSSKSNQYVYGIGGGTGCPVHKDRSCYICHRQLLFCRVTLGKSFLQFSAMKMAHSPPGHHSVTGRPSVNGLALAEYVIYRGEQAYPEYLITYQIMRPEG
Experimental: New compounds were prepared in half-log dilution series, and the reactions were carried out in quadruplicates with protein and compound controls to exclude the effect of compound autofluorescence. All reactions were performed at ambient temperature. TNKS1 (20 nM) or TNKS2 (5 nM) was incubated for 20 h in assay buffer (50 mM Bis-Tris propane (BTP), pH 7.0, 0.5 mM Tris(2-carboxyethyl)phosphine (TCEP), 0.01% Triton X-100) with compound and 10 μM or 500 nM NAD^+, respectively.

[12] = tested on: WNT/β-catenin signaling; test: cellular (HEK293) WNT/β-catenin signaling luciferase reporter assay; assay type: cell-based, human; conditions: triplicates, 24: averages of multiple independent measurements
[13] = mouse peroral pharmacokinetic analysis; assay type: in vivo; conditions: mouse PO 5 mg/kg; for AUC(0-inf) at 24 h / AUC(0-t) at 24 h / Cmax at 24 h / Tmax at 24 h / half-life at 24 h / MRT inf at 24 h: IRC, in vivo; for MRT inf at 24 h: read-out: MRT 0 → ∞
Experimental: The pharmacokinetic analyses in mice were performed according to the standard protocols of Medicilon as previously described[21] following approval by local animal experiment authorities (Shanghai, China) and in compliance with FELASA guidelines and recommendations. Three IRC mice were used per treatment group: 5 mg/kg 24 in 5% DMSO, 50% PEG400 (both Sigma-Aldrich), and 45% saline as vehicle.

[14] = kinetic solubility; assay type: physicochemical; conditions: PBS pH = 7
Experimental: Kinetic solubility, microsomal stability, and plasma stability were determined following our internal protocol (Symeres). The Caco-2 and PPB determinations were performed by Cyprotex.

[15] = Homo sapiens, HEK293, read-out: IC50 HEK293, HEK293 WNT/β-catenin signaling reporter assay
[16] = read-out: IC50 HEK293, HEK293 WNT/β-catenin signaling reporter assay

| Compound | IC50 [11] | IC50 [12, 15] | IC50 [12, 16] | AUC(0-inf) at 24 h [13] | AUC(0-t) at 24 h [13] | Cmax at 24 h [13] | Tmax at 24 h [13] | half-life at 24 h [13] | MRT inf at 24 h [13] | CL [13] | Vd [13] | solubility kinetic [14] | solubility kinetic at 1 h [14] | further results |
| --- | --- | --- | --- | --- | --- | --- | --- | --- | --- | --- | --- | --- | --- | --- |
| CCOc1ccc(-c2nnc([C@H]3C[C@H](NC(=O)c4ccccn4)C3)n2-c2ccccc2F)nc1 [Compound 1] | – | – | – | – | – | – | – | – | – | – | – | – | – | IC50 ([1]; HEK293 WNT/β-catenin signaling reporter assay): 19 nM; HEK293 reporter assay pIC50 ± SEM [1]: 19 (7.75 ± 0.067); COLO 320DM cells GI25 [2]: 94 nM; GI50 [2]: 650 nM; kinetic solubility [3]: >80 µM; Caco-2 A–B: Papp [4]: 39.5 10^–6 cm/s; microsomal stability human CLint [5]: < 5 μL/min/mg protein; microsomal stability mouse CLint ([6]; mouse): 27 μL/min/mg protein; Ames test [7]: nongenotoxic; Cerep Safety panel 44 targets (overall result) [8]: clean; Cerep Safety panel inhibition of A2A [9]: 53%; CL [10]: 2.09 L/h/kg |
| CCOc1ccc(-c2nnc([C@H]3C[C@H](NC(=O)c4ccnc5cccnc45)C3)n2-c2ccccc2F)nc1 [Compound 15a] | – | – | – | – | – | – | – | – | – | – | – | – | – | metabolic stability in mouse microsomes [6]: high metabolic instability |
| CCOc1ccc(-c2nnc([C@H]3C[C@H](NC(=O)c4ccnc5cc(F)cnc45)C3)n2-c2ccncc2)nc1 [Compound 18b, N-(trans-3-(5-(5-Ethoxypyridin-2-yl)-4-(pyridin-4-yl)-4H-1,2,4-triazol-3-yl)cyclobutyl)-7-fluoro-1,5-naphthyridine-4-carboxamide] | 2.9 nM | 6 nM | 6.4 nM | 0.322 µg·h/mL | 0.319 µg·h/mL | 0.285 µg/mL | 15 min | 60 min | 93.6 min | 15.6 L/h/kg | 22.4 L/kg | > 80 µM | – | – |
| CCOc1ccc(-c2nnc([C@H]3C[C@H](NC(=O)c4ccnc5cccnc45)C3)n2-c2ccc(C)s2)nc1 [Compound 22a, N-(trans-3-(5-(5-Ethoxypyridin-2-yl)-4-(5-methylthiophen-2-yl)-4H-1,2,4-triazol-3-yl)cyclobutyl)-1,5-naphthyridine-4-carboxamide] | 0.73 nM | 0.81 nM | – | 0.547 µg·h/mL | 0.543 µg·h/mL | 0.779 µg/mL | 15 min | 70.2 min | 83.4 min | 9.14 L/h/kg | 15.5 L/kg | – | 50 µM (≈ 25.6 µg/mL) | – |
| Cc1cccc(-c2nnc([C@H]3C[C@H](NC(=O)c4cccc5nccnc45)C3)n2-c2ccccc2F)n1 [Compound 31a, N-(trans-3-(4-(2-Fluorophenyl)-5-(6-methylpyridin-2-yl)-4H-1,2,4-triazol-3-yl)cyclobutyl)quinoxaline-5-carboxamide] | 1.7 nM | 1.5 nM | – | 3.4 µg·h/mL | 3.4 µg·h/mL | 2.77 µg/mL | 15 min | 45.6 min | 74.4 min | 1.47 L/h/kg | 1.61 L/kg | > 80 µM | – | – |
| Cc1cccc(-c2nnc([C@H]3C[C@H](NC(=O)c4cc(F)cc5nccnc45)C3)n2-c2ccccc2F)n1 [Compound 31b, N-(trans-3-(4-(2-Fluorophenyl)-5-(6-methylpyridin-2-yl)-4H-1,2,4-triazol-3-yl)cyclobutyl)-7-fluoroquinoxaline-5-carboxamide] | 1.6 nM | 0.17 nM | 0.169 nM | 5.32 µg·h/mL | 5.31 µg·h/mL | 5.8 µg/mL | 15 min | 35.4 min | 88.2 min | 0.94 L/h/kg | 0.80 L/kg | – | 13 µM (≈ 6.47 µg/mL) | – |
